# Assays:
# Myzus persicae = Myzus persicae test, dipped cabbage leaves; type: in vivo; conditions: 100 ppm, after 6 d
# Description: The determined kill rates are calculated using Colby's formula (see sheet 1).
# Phaedon cochleariae = Phaedon cochleariae test, dipped cabbage leaves
# Plutella xylostella = Plutella xylostella test, dipped cabbage leaves; type: in vivo; conditions: after 6 d
# Botrytis cinerea = Botrytis cinerea test (in vitro)/microtitre plates; type: cell-based; conditions: 3 ppm, after 5 d
# Description: (§1) The microtest is carried out in microtitre plates using potato dextrose broth (PDB) as liquid test medium. The active compounds are applied as technical-grade a.i., dissolved in acetone. A spore suspension of Botrytis cinerea is used for inoculation. After 5 days of incubation in the dark and with shaking (10 Hz), the transparency in each filled cavity of the microtitre plates is determined with the aid of a spectrophotometer.
# (§2) 0% means an efficacy which corresponds to the growth in the controls, whereas an efficacy of 100% means that no fungal growth is observed.
# Alternaria mali = Alternaria mali test (in vitro)/microtitre plates; type: cell-based; conditions: 3 ppm, after 4 d
# Description: as §1, with “PDB)” for “(PDB)”, “Alternaria mali” for “Botrytis cinerea”, “4” for “5”
# as §2
compound,measurement,setting,value
"N#Cc1nn(-c2c(Cl)cc(C(F)(F)F)cc2Cl)c(N)c1[S+]([O-])C(F)(F)F (stereo not drawn) [(6.2.1) fipronil, fipronil]","Kill rate in % after d, found",Myzus persicae,65%
"CS/C(C)=N\OC(=O)N(C)SN(C)C(=O)O/N=C(\C)SC [(3.1.2) thiodicarb, thiodicarb]","Kill rate in % after d, found","Phaedon cochleariae; 100 ppm, after 4 d",0%
"O=[N+]([O-])NC1=NCCN1Cc1ccc(Cl)nc1 [(2.1.2) imidacloprid, imidacloprid]","Kill rate in % after d, found",Plutella xylostella; 4 ppm,20%
same,"Efficacy in % after d, found",Botrytis cinerea,3%
same,"Kill rate in % after d, found","Phaedon cochleariae; 0.8 ppm, after 6 d",40%
"Cc1nn(C)c(F)c1C(=O)Nc1ccccc1C(C)CC(C)C (stereo not drawn) [(1-2), N-[2-(1,3-dimethylbutyl)phenyl]-5-fluoro-1,3-dimethyl-1H-pyrazole-4-carboxamide]","Kill rate in % after d, found",Myzus persicae,0%
same,"Efficacy in % after d, found",Botrytis cinerea,16%
same,"Kill rate in % after d, found",Alternaria mali,48%
same,"Kill rate in % after d, found","Phaedon cochleariae; 100 ppm, after 4 d",0%
same,"Kill rate in % after d, found","Phaedon cochleariae; 100 ppm, after 6 d",0%
"CN/C(=N\[N+](=O)[O-])NCc1cnc(Cl)s1 [(2.1.1) clothianidin, clothianidin]","Kill rate in % after d, found",Plutella xylostella; 20 ppm,20%
same,"Kill rate in % after d, found",Alternaria mali,8%
same,"Kill rate in % after d, found","Phaedon cochleariae; 0.8 ppm, after 6 d",0%
"CNC(=O)Oc1cc(C)c(SC)c(C)c1 [(3.1.1) methiocarb, methiocarb]","Kill rate in % after d, found",Myzus persicae,0%
spinosad [(5.1.1) spinosad],"Kill rate in % after d, found","Phaedon cochleariae; 0.8 ppm, after 6 d",80%

# Reference: patent US9155302B2, “Active substance combinations” (priority 2005, dated 2015)
